# Earlier results, collected in patent US5981578A (priority 1997, dated 1999).
# Details: in just a few days
smiles,measurement,value
"O=C1O[C@H]([C@@H](O)CO)C(O)=C1O [Ascorbic acid, ascorbic acid]",color development of aqueous preparations,"develop colors, progressively, from light yellow to orange dark brown"
